Measurements taken from patent US11242337B2, “Compounds useful for treating gastrointestinal tract disorders” (Ardelyx, Inc., priority 2017, dated 2022).

Biological target: T1, NHE3 (Homo sapiens, UniProt P48764)
T1 construct: expressed in transfected cells
T1 sequence (P48764 26-834): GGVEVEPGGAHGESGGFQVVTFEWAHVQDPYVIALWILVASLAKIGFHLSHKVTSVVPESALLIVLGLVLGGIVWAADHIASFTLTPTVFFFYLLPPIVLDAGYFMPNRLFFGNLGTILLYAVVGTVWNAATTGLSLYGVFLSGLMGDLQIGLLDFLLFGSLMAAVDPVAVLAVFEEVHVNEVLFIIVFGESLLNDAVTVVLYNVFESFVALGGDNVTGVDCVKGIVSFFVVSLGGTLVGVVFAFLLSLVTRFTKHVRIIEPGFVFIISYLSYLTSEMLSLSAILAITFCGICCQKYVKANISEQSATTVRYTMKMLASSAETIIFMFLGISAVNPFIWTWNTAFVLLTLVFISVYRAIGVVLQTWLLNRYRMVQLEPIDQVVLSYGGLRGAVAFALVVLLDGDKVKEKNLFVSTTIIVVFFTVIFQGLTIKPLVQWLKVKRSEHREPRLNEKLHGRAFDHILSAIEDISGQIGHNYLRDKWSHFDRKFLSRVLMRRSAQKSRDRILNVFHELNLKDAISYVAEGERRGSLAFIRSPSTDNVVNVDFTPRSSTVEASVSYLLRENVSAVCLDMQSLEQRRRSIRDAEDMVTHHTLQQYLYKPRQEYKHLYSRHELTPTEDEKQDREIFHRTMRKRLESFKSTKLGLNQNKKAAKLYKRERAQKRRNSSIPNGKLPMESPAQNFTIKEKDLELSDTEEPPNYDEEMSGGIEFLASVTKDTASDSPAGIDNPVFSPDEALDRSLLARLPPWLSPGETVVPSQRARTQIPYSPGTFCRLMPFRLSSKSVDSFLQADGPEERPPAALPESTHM
T1 sequence (Q99653 2-195 partner limits assumed): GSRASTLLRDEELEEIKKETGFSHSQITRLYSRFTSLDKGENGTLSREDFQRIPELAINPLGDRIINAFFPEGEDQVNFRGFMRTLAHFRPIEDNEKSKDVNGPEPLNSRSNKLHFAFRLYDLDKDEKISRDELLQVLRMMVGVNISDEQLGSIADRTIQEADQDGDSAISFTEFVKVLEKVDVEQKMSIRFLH
Test: Cell-based assay of NHE-3 activity (persistent inhibition), human
Details: human Persistence, 60 min incubation then washout
Outline: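 Persistent inhibition: compound (0-30 μM, 60 min, RT, NaCl-HEPES pH 7.4) removed before assay. Human NHE3/NHERF2 PS120 cells were then BCECF-loaded during NH4Cl pulse (30 min, 37 °C), acidified in Na+-free buffer, and Na+ added 10 min after washout; antiport measured as initial fluorescence-ratio change per minute.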

% inhibition	pIC50	SMILES
C (>70%)	C (NHE3 pIC50 > 7)	N#Cc1cc(Cl)cc2c1C[C@H](N1CCNCC1)[C@H]2Oc1ccc(S(=O)(=O)N2CCC(NC(=O)CCCNC(=O)NCCCCNC(=O)NCCCC(=O)NC3CCN(S(=O)(=O)c4ccc(O[C@H]5c6cc(Cl)cc(C#N)c6C[C@@H]5N5CCNCC5)cc4)CC3)CC2)cc1 [Example 120, N^1,N^18-Bis(1-([4-([(1S,2S)-6-chloro-4-cyano-2-(piperazin-1-yl)-2,3-dihydro-1H-inden-1-yl]oxy)phenyl]sulfonyl)piperidin-4-yl)-6,13-dioxo-5,7,12,14-tetraazaoctadecanediamide]
C (>70%)	C (NHE3 pIC50 > 7)	Cc1cc(S(=O)(=O)NCCOCCOCCNC(=O)NCCCCNC(=O)NCCOCCOCCNS(=O)(=O)c2ccc(O[C@H]3c4cc(Cl)cc(Cl)c4C[C@@H]3N3CCNCC3)c(C)c2)ccc1O[C@H]1c2cc(Cl)cc(Cl)c2C[C@@H]1N1CCNCC1 [Example 32, 3-[2-(2-[2-[(4-[[(1S,2S)-4,6-Dichloro-2-(piperazin-1-yl)-2,3-dihydro-1H-inden-1-yl]oxy]-3-methylbenzene)sulfonamido]ethoxy]ethoxy)ethyl]-1-[4-([[2-(2-[2-[(4-[[(1S,2S)-4,6-dichloro-2-(piperazin-1-yl)-2,3-dihydro-1H-inden-1-yl]oxy]-3-methylbenzene)sulfonamido]ethoxy]ethoxy)ethyl]carbamoyl]amino)butyl]urea; bis(trifluoroacetic acid)]
C (>70%)	–	O=C(NCCCCNC(=O)NCCOCCN1CC[C@H](NS(=O)(=O)c2ccc(O[C@H]3c4cc(Cl)cc(Cl)c4C[C@@H]3N3CCNCC3)c(F)c2)C1)NCCOCCN1CC[C@H](NS(=O)(=O)c2ccc(O[C@H]3c4cc(Cl)cc(Cl)c4C[C@@H]3N3CCNCC3)c(F)c2)C1 [Example 106, 4-([(1S,2S)-4,6-Dichloro-2-(piperazin-1-yl)-2,3-dihydro-1H-inden-1-yl]oxy)-N—[(S)-1-(20-[(S)-3-([4-([(1S,2S)-4,6-dichloro-2-(piperazin-1-yl)-2,3-dihydro-1H-inden-1-yl]oxy)-3-fluorophenyl]sulfonamido)pyrrolidin-1-yl]-7,14-dioxo-3,18-dioxa-6,8,13,15-tetraazaicosyl)pyrrolidin-3-yl]-3-fluorobenzenesulfonamide; tetra(trifluoroacetate)]
C (>70%)	–	Cc1cc(Cl)cc2c1C[C@H](N1CCNCC1)[C@H]2Oc1ccc(S(=O)(=O)NCCOCCOCCNC(=O)NCCCCNC(=O)NCCOCCOCCNS(=O)(=O)c2ccc(O[C@H]3c4cc(Cl)cc(C)c4C[C@@H]3N3CCNCC3)cc2)cc1 [Example 34, 3-[2-(2-[2-[(4-[[(1S,2S)-6-Chloro-4-methyl-2-(piperazin-1-yl)-2,3-dihydro-1H-inden-1-yl]oxy]benzene)sulfonamido]ethoxy]ethoxy)ethyl]-1-[4-([[2-(2-[2-[(4-[[(1S,2S)-6-chloro-4-methyl-2-(piperazin-1-yl)-2,3-dihydro-1H-inden-1-yl]oxy]benzene)sulfonamido]ethoxy]ethyl)ethyl]carbamoyl]amino)butyl]urea; bis(trifluoroacetic acid)]
C (>70%)	C (NHE3 pIC50 > 7)	C[C@@H]1CN([C@H]2Cc3c(C#N)cc(Cl)cc3[C@@H]2Oc2ccc(S(=O)(=O)N[C@H]3CCN(CCOCCNC(=O)NCCCCNC(=O)NCCOCCN4CC[C@H](NS(=O)(=O)c5ccc(O[C@H]6c7cc(Cl)cc(C#N)c7C[C@@H]6N6CCN[C@H](C)C6)cc5)C4)C3)cc2)CCN1 [Example 132, 4-([(1S,2S)-6-Chloro-4-cyano-2-[(R)-3-methylpiperazin-1-yl]-2,3-dihydro-1H-inden-1-yl]oxy)-N—[(S)-1-(20-[(S)-3-([4-([(1S,2S)-6-chloro-4-cyano-2-[(R)-3-methylpiperazin-1-yl]-2,3-dihydro-1H-inden-1-yl]oxy)phenyl]sulfonamido)pyrrolidin-1-yl]-7,14-diaxo-3,18-dioxa-5,8,13,15-tetraazaicosyl)pyrrolidin-3-yl]benzenesulfonamide; bis(trifluoroacetic acid)]
C (>70%)	C (NHE3 pIC50 > 7)	CN(C)[C@H]1CCCN([C@H]2Cc3c(C#N)cc(Cl)cc3[C@@H]2Oc2ccc(S(=O)(=O)NCCOCCOCCNC(=O)NCCCCNC(=O)NCCOCCOCCNS(=O)(=O)c3ccc(O[C@H]4c5cc(Cl)cc(C#N)c5C[C@@H]4N4CCC[C@H](N(C)C)C4)cc3)cc2)C1 [Example 122, 4-([(1S,2S)-6-Chloro-4-cyano-2-[(S)-3-(dimethylamino)piperidin-1-yl]-2,3-dihydro-1H-inden-1-yl]oxy)-N-[26-([4-([(1S,2S)-6-chloro-4-cyano-2-[(S)-3-(dimethylamino)piperidin-1-yl]-2,3-dihydro-1H-inden-1-yl]oxy)phenyl]sulfonamido)-10,17-dioxo-3,6,21,24-tetraoxa-9,11,16,18-tetraazahexacosyl]benzenesulfonamide]
C (>70%)	C (NHE3 pIC50 > 7)	Cc1cc(Cl)cc2c1C[C@H](N1CCC[C@@H](N(C)C)C1)[C@H]2Oc1ccc(S(=O)(=O)NCCOCCOCCNC(=O)NCCCCNC(=O)NCCOCCOCCNS(=O)(=O)c2ccc(O[C@H]3c4cc(Cl)cc(C)c4C[C@@H]3N3CCC[C@@H](N(C)C)C3)cc2)cc1 [Example 28, 3-[2-(2-[2-[(4-[[(1S,2S)-6-Chloro-2-[(3R)-3-(dimethylamino)piperidin-1-yl]-4-methyl-2,3-dihydro-1H-inden-1-yl]oxy]benzene)sulfonamido]ethoxy]ethoxy)ethyl]-1-[4-([[2-(2-[2-[(4-[[(1S,2S)-6-chloro-2-[(3R)-3-(dimethylamino)piperidin-1-yl]-4-methyl-2,3-dihydro-1H-inden-1-yl]oxy]benzene)sulfonamido]ethoxy]ethoxy)ethyl]carbamoyl]amino)butyl]urea; bis(trifluoroacetic acid)]
C (>70%)	C (NHE3 pIC50 > 7)	Cc1cc(S(=O)(=O)NCCOCCOCCNC(=O)NCCCCNC(=O)NCCOCCOCCNS(=O)(=O)c2ccc(O[C@H]3c4cc(Cl)cc(C#N)c4C[C@@H]3N3CCNCC3)c(C)c2)ccc1O[C@H]1c2cc(Cl)cc(C#N)c2C[C@@H]1N1CCNCC1 [Example 42, 3-[2-(2-[2-[(4-[[(1S,2S)-6-Chloro-4-cyano-2-(piperazin-1-yl)-2,3-dihydro-1H-inden-1-yl]oxy]-3-methylbenzene)sulfonamido]ethoxy]ethoxy)ethyl]-1-[4-([[2-(2-[2-[(4-[[(1S,2S)-6-chloro-4-cyano-2-(piperazin-1-yl)-2,3-dihydro-1H-inden-1-yl]oxy]-3-methylbenzene)sulfonamido]ethoxy]ethoxy)ethyl]carbamoyl]amino)butyl]urea; bis(trifluoroacetic acid)]
C (>70%)	C (NHE3 pIC50 > 7)	N#Cc1cc(Cl)cc2c1C[C@H](N1CCNCC1)[C@H]2Oc1ccc(S(=O)(=O)NC2CCN(C(=O)CCCNC(=O)NCCCCNC(=O)NCCCC(=O)N3CCC(NS(=O)(=O)c4ccc(O[C@H]5c6cc(Cl)cc(C#N)c6C[C@@H]5N5CCNCC5)cc4)CC3)CC2)cc1 [Example 115]
